Measurements published in patent US20100099561A1, “HETEROBICYCLIC ALKYLTHIO-BRIDGED ISOXAZOLINES” (E.I. DU PONT DE NEMOURS AND COMPANY, priority 2008, published 2010).

Tests used:
Type in all cases: in vivo
rice (Oryza sativa) = test: Test B flooded paddy test, rice; conditions: Flood, scale 0 to 100
Method in brief: (§1)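 Compounds were added directly to paddy water over 2-leaf-stage plants in pots flooded 3 cm above soil, water depth maintained. Visual injury scored against controls after 13 to 15 days in greenhouse, 0 (none) to 100 (complete control); dash indicates no result.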

[1] = test system: barnyardgrass (Echinochloa crus-galli); test: Test A preemergence, barnyardgrass; conditions: 0 to 100 scale (0 no effect, 100 complete control)
Method in brief: (§2)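 Visual injury scored 0 (no effect) to 100 (complete control) against untreated plants roughly ten days after greenhouse treatment. Postemergence sprays hit one- to two-leaf plants 2–10 cm high; preemergence was a directed spray onto loam–sand soil, both using surfactant-containing solvent formulations.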

[2] = test system: pigweed (Amaranthus retroflexus); test: Test A preemergence, pigweed; conditions: 0 to 100 scale (0 no effect, 100 complete control)
Method in brief: as §2

[3] = test system: wheat (Triticum aestivum); test: Test A preemergence, wheat; conditions: 0 to 100 scale (0 no effect, 100 complete control)
Method in brief: as §2

[4] = test system: large crabgrass (Digitaria sanguinalis); test: Test A postemergence, large crabgrass; conditions: 0 to 100 scale (0 no effect, 100 complete control)
Method in brief: as §2

[5] = test system: giant foxtail (Setaria faberi); test: Test A preemergence, giant foxtail; conditions: 0 to 100 scale (0 no effect, 100 complete control)
Method in brief: as §2

[6] = test system: wheat (Triticum aestivum); test: Test A postemergence, wheat; conditions: 0 to 100 scale (0 no effect, 100 complete control)
Method in brief: as §2

[7] = test system: velvetleaf (Abutilon theophrasti); test: Test A postemergence, velvetleaf; conditions: 0 to 100 scale (0 no effect, 100 complete control)
Method in brief: as §2

[8] = test system: ducksalad (Heteranthera limosa); test: Test B flooded paddy test, ducksalad; conditions: Flood, scale 0 to 100
Method in brief: as §1

corn (Zea mays) [9] = test: Test A postemergence, corn; conditions: 0 to 100 scale (0 no effect, 100 complete control)
Method in brief: as §2

[10] = test system: velvetleaf (Abutilon theophrasti); test: Test A preemergence, velvetleaf; conditions: 0 to 100 scale (0 no effect, 100 complete control)
Method in brief: as §2

corn (Zea mays) [11] = test: Test A preemergence, corn; conditions: 0 to 100 scale (0 no effect, 100 complete control)
Method in brief: as §2

[12] = test system: giant foxtail (Setaria faberi); test: Test A postemergence, giant foxtail; conditions: 0 to 100 scale (0 no effect, 100 complete control)
Method in brief: as §2

[13] = test system: large crabgrass (Digitaria sanguinalis); test: Test A preemergence, large crabgrass; conditions: 0 to 100 scale (0 no effect, 100 complete control)
Method in brief: as §2

[14] = test system: barnyardgrass (Echinochloa crus-galli); test: Test B flooded paddy test, barnyardgrass; conditions: Flood
Method in brief: as §1

[15] = test system: pigweed (Amaranthus retroflexus); test: Test A postemergence, pigweed; conditions: 0 to 100 scale (0 no effect, 100 complete control)
Method in brief: as §2

[16] = test system: morningglory (Ipomoea spp.); test: Test A preemergence, morningglory; conditions: 0 to 100 scale (0 no effect, 100 complete control)
Method in brief: as §2

[17] = test system: barnyardgrass (Echinochloa crus-galli); test: Test A postemergence, barnyardgrass; conditions: 0 to 100 scale (0 no effect, 100 complete control)
Method in brief: as §2

[18] = test system: umbrella sedge (Cyperus difformis); test: Test B flooded paddy test, umbrella sedge; conditions: Flood, scale 0 to 100
Method in brief: as §1

[19] = test system: morningglory (Ipomoea spp.); test: Test A postemergence, morningglory; conditions: 0 to 100 scale (0 no effect, 100 complete control)
Method in brief: as §2

[20] = 250 g ai/ha, scale 0 to 100 (0 no effect, 100 complete control)

Row | SMILES | Plant response rating, Rice (rice (Oryza sativa); 62 g ai/ha) | Plant response rating, Rice (rice (Oryza sativa); 250 g ai/ha) | Plant response rating, Barnyardgrass ([1]; 125 g ai/ha) | Plant response rating, Barnyardgrass ([1]; 500 g ai/ha) | Plant response rating, Pigweed ([2]; 125 g ai/ha) | Plant response rating, Pigweed ([2]; 500 g ai/ha) | Plant response rating, Wheat ([3]; 125 g ai/ha) | Plant response rating, Wheat ([3]; 500 g ai/ha) | Plant response rating, Crabgrass, Large ([4]; 125 g ai/ha) | Plant response rating, Crabgrass, Large ([4]; 500 g ai/ha) | Plant response rating, Foxtail, Giant ([5]; 125 g ai/ha) | Plant response rating, Foxtail, Giant ([5]; 500 g ai/ha) | Plant response rating, Wheat ([6]; 125 g ai/ha) | Plant response rating, Wheat ([6]; 500 g ai/ha) | Plant response rating, Velvetleaf ([7]; 125 g ai/ha) | Plant response rating, Velvetleaf ([7]; 500 g ai/ha) | Plant response rating, Ducksalad ([8]; 62 g ai/ha) | Plant response rating, Ducksalad ([8]; 250 g ai/ha) | Plant response rating, Corn (corn (Zea mays) [9]; 125 g ai/ha) | Plant response rating, Corn (corn (Zea mays) [9]; 500 g ai/ha) | also measured
1 | CC1(C)CC(S(=O)(=O)Cc2c(C(F)(F)F)nc3ccccn3c2=O)=NO1 [Compound 7] | 0 | 0 | 60 | 90 | 0 | 0 | 0 | 10 | 40 | 80 | 80 | 90 | 0 | 0 | 0 | 20 | 0 | 0 | 0 | 0 | Plant response rating, Velvetleaf ([10]; 125 g ai/ha): 0; Plant response rating, Velvetleaf ([10]; 500 g ai/ha): 0; Plant response rating, Corn (corn (Zea mays) [11]; 125 g ai/ha): 0; Plant response rating, Corn (corn (Zea mays) [11]; 500 g ai/ha): 0; Plant response rating, Foxtail, Giant ([12]; 125 g ai/ha): 60; Plant response rating, Foxtail, Giant ([12]; 500 g ai/ha): 80; Plant response rating, Crabgrass, Large ([13]; 125 g ai/ha): 60; Plant response rating, Crabgrass, Large ([13]; 500 g ai/ha): 80; Plant response rating, Barnyardgrass ([14]; 62 g ai/ha, scale 0 to 100): 0; Plant response rating, Barnyardgrass [14, 20]: 0; Plant response rating, Pigweed ([15]; 125 g ai/ha): 0; Plant response rating, Pigweed ([15]; 500 g ai/ha): 0; Plant response rating, Morningglory ([16]; 125 g ai/ha): 0; Plant response rating, Morningglory ([16]; 500 g ai/ha): 0; Plant response rating, Barnyardgrass ([17]; 125 g ai/ha): 80; Plant response rating, Barnyardgrass ([17]; 500 g ai/ha): 80; Plant response rating, Sedge, Umbrella ([18]; 62 g ai/ha): 0; Plant response rating, Sedge, Umbrella ([18]; 250 g ai/ha): 0; Plant response rating, Morningglory ([19]; 125 g ai/ha): 0; Plant response rating, Morningglory ([19]; 500 g ai/ha): 0
2 | Cc1cc2nc(C(F)(F)F)c(CS(=O)(=O)C3=NOC(C)(C)C3)c(=O)n2o1 [Compound 53] | 0 | 0 | 30 | 90 | 0 | 0 | 0 | 0 | 30 | 80 | 30 | 90 | 0 | 20 | 0 | 0 | 0 | 0 | 0 | 0 | Plant response rating, Velvetleaf ([10]; 125 g ai/ha): 0; Plant response rating, Velvetleaf ([10]; 500 g ai/ha): 0; Plant response rating, Corn (corn (Zea mays) [11]; 125 g ai/ha): 0; Plant response rating, Corn (corn (Zea mays) [11]; 500 g ai/ha): 0; Plant response rating, Foxtail, Giant ([12]; 125 g ai/ha): 60; Plant response rating, Foxtail, Giant ([12]; 500 g ai/ha): 80; Plant response rating, Crabgrass, Large ([13]; 125 g ai/ha): 30; Plant response rating, Crabgrass, Large ([13]; 500 g ai/ha): 90; Plant response rating, Barnyardgrass ([14]; 62 g ai/ha, scale 0 to 100): 0; Plant response rating, Barnyardgrass [14, 20]: 0; Plant response rating, Pigweed ([15]; 125 g ai/ha): 0; Plant response rating, Pigweed ([15]; 500 g ai/ha): 0; Plant response rating, Morningglory ([16]; 125 g ai/ha): 0; Plant response rating, Barnyardgrass ([17]; 125 g ai/ha): 50; Plant response rating, Barnyardgrass ([17]; 500 g ai/ha): 90; Plant response rating, Sedge, Umbrella ([18]; 62 g ai/ha): 0; Plant response rating, Sedge, Umbrella ([18]; 250 g ai/ha): 0; Plant response rating, Morningglory ([19]; 125 g ai/ha): 0; Plant response rating, Morningglory ([19]; 500 g ai/ha): 10
